The target in one assay is Histone deacetylase 1 (Homo sapiens, UniProt Q13547). The assay is described as follows: Inhibition of human recombinant FLAG-tagged HDAC1 expressed in HEK293F cells incubated for 30 mins by Fluor De Lys assay. It counts as cell-based.
In the next assay the target is Histone deacetylase 2 (Homo sapiens, UniProt Q92769). The assay is described as follows: Inhibition of human recombinant FLAG-tagged HDAC2 expressed in Sf9 cells incubated for 30 mins by Fluor De Lys assay.
Histone deacetylase 2, sequence (Q92769 whole entry): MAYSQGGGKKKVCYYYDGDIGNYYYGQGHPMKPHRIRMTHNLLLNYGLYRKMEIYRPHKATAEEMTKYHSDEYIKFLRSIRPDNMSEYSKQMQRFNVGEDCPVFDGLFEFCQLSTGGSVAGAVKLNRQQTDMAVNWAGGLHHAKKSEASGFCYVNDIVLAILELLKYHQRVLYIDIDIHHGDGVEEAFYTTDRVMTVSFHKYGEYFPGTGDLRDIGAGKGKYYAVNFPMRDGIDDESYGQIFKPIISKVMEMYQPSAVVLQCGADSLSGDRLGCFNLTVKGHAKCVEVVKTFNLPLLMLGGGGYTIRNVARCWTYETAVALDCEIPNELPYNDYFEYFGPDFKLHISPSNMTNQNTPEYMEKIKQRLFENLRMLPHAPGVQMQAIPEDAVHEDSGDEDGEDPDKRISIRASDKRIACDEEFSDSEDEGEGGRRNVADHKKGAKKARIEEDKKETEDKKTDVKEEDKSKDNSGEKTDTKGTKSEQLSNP
The next assay has as its target Histone deacetylase 3 (Homo sapiens, UniProt O15379). The assay is described as follows: Inhibition of human recombinant FLAG-tagged HDAC3 expressed in HEK293F cells incubated for 30 mins by Fluor De Lys assay. It counts as cell-based.

Bounds are passed on as bounds.

Histone deacetylase 1, sequence (Q13547 whole entry): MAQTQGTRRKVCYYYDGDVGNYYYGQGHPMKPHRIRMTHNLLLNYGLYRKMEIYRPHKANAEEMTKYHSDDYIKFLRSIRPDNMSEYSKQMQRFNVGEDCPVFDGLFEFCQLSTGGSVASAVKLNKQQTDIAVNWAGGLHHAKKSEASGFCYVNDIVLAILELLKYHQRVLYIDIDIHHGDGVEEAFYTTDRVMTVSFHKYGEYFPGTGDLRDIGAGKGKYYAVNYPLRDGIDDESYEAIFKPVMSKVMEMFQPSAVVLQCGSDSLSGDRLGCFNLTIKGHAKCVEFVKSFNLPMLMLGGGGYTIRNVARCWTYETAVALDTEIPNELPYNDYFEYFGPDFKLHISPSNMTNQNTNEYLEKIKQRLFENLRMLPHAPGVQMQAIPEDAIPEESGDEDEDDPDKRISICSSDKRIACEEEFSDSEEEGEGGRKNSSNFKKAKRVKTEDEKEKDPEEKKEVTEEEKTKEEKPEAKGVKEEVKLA
Histone deacetylase 3, sequence (O15379 whole entry): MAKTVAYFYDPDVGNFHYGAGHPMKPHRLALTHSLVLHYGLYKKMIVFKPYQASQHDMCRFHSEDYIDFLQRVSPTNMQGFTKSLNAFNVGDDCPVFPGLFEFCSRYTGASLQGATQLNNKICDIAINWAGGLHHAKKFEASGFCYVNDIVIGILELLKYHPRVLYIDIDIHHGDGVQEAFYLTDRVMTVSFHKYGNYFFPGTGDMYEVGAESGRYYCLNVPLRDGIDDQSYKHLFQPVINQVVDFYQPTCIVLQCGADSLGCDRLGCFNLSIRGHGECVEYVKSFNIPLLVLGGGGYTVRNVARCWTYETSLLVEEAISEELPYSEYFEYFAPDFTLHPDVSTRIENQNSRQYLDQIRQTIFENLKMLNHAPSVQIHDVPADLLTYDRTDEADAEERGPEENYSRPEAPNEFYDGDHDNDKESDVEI

In the case of `CCC(=O)CCCCC[C@H](NC(=O)[C@H]1CC12CCN(C)CC2)c1ncc(-c2cc3ccc(N4CCCC4)nc3cc2OC)[nH]1`, the IC50 at Histone deacetylase 1 stood at 0.32 nM; at Histone deacetylase 2, 2 nM.

With `CCC(=O)CCCCC[C@H](NC(=O)[C@H]1CC12CCN(CC)CC2)c1ncc(-c2cc3cccnc3cc2OC)o1`, the IC50 on Histone deacetylase 1 and at Histone deacetylase 3 was less than 1.5 nM throughout.

Usually IC50 stands for the midpoint of a concentration-inhibition curve.
